US7977361B2, “Nitro-imidazole hypoxia imaging agent” (Siemens Medical Solutions USA, Inc., priority 2007, dated 2011)
“Also recorded” adds a separate entry of the source.

How the values were obtained:
[1] = tested on: ALM12 mouse normal liver cell lines; assay: Cytotoxicity assay (MTT reduction), ALM12 cells; assay type: cell-based; settings: ALM12, 0-10000 nM, 24 hours
Experimental: (§1) Method: The assay is based on the ability of viable cells to reduce 3-[4,5-dimethylthiazol-2-yl]-2,5-diphenyl tetrazolium bromide to colored formazan crystals. Ls174T human colorectal adenocarcinoma, A172 human brain glioblastoma, MRC5 human normal lung fibroblast, and ALM12 mouse normal liver cell lines were selected for this study. Cells were cultured with different concentration of Compound 1 (0, 100, 500, 1000, 5000, 10000 nM) for 24 hours and then incubated with 0.5 mg/ml of 3-[4,5-dimethylthiazol-2-yl]-2,5-diphenyl tetrazolium bromide for 1 hour. Cells were lysed and formazan crystals were dissolved with 2-propanol for 1 hour and the optical density of the resultant colored 2-propanol was measured. The percentages of cell survival were calculated based on the optical densities.

[2] = Plasma and urine pharmacology study of Compound 1 in rats (LC/MS after IV injection); assay type: in vivo; settings: rat
Experimental: (§2) To the samples were added a proportional amount of lysis buffer (about 5 ml/gram tissue) before the tissue was homogenized using a powered homogenizer, 50 μL of lysis buffer was added to the blood and urine samples, followed by briefly vortexing. 200 μl of organ homogenate was sampled into a 1.5 ml Eppendorf tube. All samples were heated at 100° C. for 2 minutes to denature the proteins and then placed in ice for 15 minutes. Then 40 μl of formic acid was added to the organ samples and 20 μl was added to the blood and urine samples. All tubes were vortexed to achieve complete mixing of sample with acid. Samples were then placed on ice for 15 minutes before being centrifuged at 13000 rpm for 15 minutes at 4° C. 30 μl of the supernatant was transferred to an HPLC vial for MSD analysis.
(§3) A standard curve with a wide range of Compound 1 concentrations was prepared using the same method described above for tissue lysate treatment. The corresponding peak of the compound was identified first in the standards. The areas of the peaks were measured and converted into a standard correlation curve for estimation of Compound 1 concentration in the samples. The amount of compound in each sample is expressed as % injected dose/gram tissue (% ID/g tissue).
Method: Compound 1 solution was prepared as described previously. One ml of 10 mM Compound 1 solution was injected intravenously (tail vein) into rats under isofluorane anesthesia. Blood and urine samples were collected before injection and at 15, 30, 60, 90 and 120 minutes after injection. Samples treatments and LC/MS measurement are the same as the mouse samples described in 1A.

[3] = tested on: MRC5 human normal lung fibroblast; assay: Cytotoxicity assay (MTT reduction), MRC5 cells; assay type: cell-based; settings: MRC5, 0-10000 nM, 24 hours
Experimental: as §1

[4] = tested on: Ls174T human colorectal adenocarcinoma; assay: Cytotoxicity assay (MTT reduction), Ls174T cells; assay type: cell-based; settings: 0-10000 nM, 24 hours
Experimental: as §1

[5] = Bio-distribution and bio-stability of Compound 1 in mice (LC/MS of blood, urine and organs after IV injection); assay type: in vivo; settings: mouse; for tissue uptake at 30 min: 1 µmol per animal
Experimental: Method: Compound 1 was dissolved in DMSO to achieve a 100 mM stock solution. This was then diluted with 1× PBS containing 3% Solutol to achieve a concentration of 5 mM. 200 μl of 5 mM Compound 1 solution was injected into the tail vein in mice animals under isofluorane anesthesia. The in vivo uptake was two hours.
Blood and urine samples were collected at 30, 60, 90 and 120 minutes. Samples were immediately placed on ice to prevent compound degradation. After blood and urine sampling were completed at 120 minutes, the mouse was sacrificed by cervical dislocation. The following whole organs were harvested within 30-40 minutes in the following order; lower GI, upper GI, spleen, pancreas, gall bladder, liver, heart, kidneys, lungs, about 0.3 gram of muscle from both legs, about 0.4 gram of skin at the back, the entire brain and about 0.4 gram of fat inside the abdomen.
as §2, §3

[6] = tested on: A172 human brain glioblastoma; assay: Cytotoxicity assay (MTT reduction), A172 cells; assay type: cell-based; settings: A172, 0-10000 nM, 24 hours
Experimental: as §1

- tissue uptake at 30 min ([2]; 10 µmol per animal, IV tail vein 1 ml of 10 mM, urine at 30 minute, read-out: urine level): 5.3 %ID/g
- urine excretion and blood clearance [2]: fast
- urine excretion index (averaged urine % ID/g divided by blood % ID/g at 120 minute) [2]: 36.62
- tissue uptake at 30 min ([2]; whole blood, 10 µmol per animal, IV tail vein 1 ml of 10 mM, blood at 30 minutes, read-out: blood level): 0.67 %ID/g
- tissue uptake at 120 min ([2]; whole blood, 10 µmol per animal, IV tail vein 1 ml of 10 mM, blood at 120 minutes, read-out: blood level): 0.15 %ID/g
- tissue uptake at 30 min ([5]; IV tail vein 200 μl of 5 mM, urine at 30 minutes, read-out: urine level): 95.6 %ID/g
- blood clearance and urine excretion [5]: fast
- urine excretion index (averaged urine % ID/g divided by blood % ID/g at 120 minute) [5]: 88.69
- blood level ([5]; IV tail vein 200 μl of 5 mM, blood at 120 minutes): 0.59%
- levels in gall bladder and GI system ([5]; organs harvested after 120 minutes): low
- tissue uptake at 30 min ([5]; whole blood, IV tail vein 200 μl of 5 mM, blood at 30 minutes, read-out: blood level): 4.1 %ID/g
Structure (SMILES): O=[N+]([O-])c1nccn1Cc1cn(C(CO)CF)nn1 (stereo not drawn) [Compound 1, 3-Fluoro-2-(4-((2-nitro-1H-imidazol-1-yl)methyl)-1H-1,2,3-triazol-1-yl)propan-1-ol]
- cytotoxicity: numbers of viable cells vs untreated control cells [1]: no difference
- cytotoxicity: numbers of viable cells vs untreated control cells [3]: no cytotoxic effects; also recorded: no difference
- cytotoxicity: numbers of viable cells vs untreated control cells [4]: no cytotoxic effects; also recorded: no difference
- cytotoxicity: numbers of viable cells vs untreated control cells [6]: no cytotoxic effects; also recorded: no difference
